{"source": "patent US20200038513A1", "about": "“MODULATORS OF FAK PROTEOLYSIS AND ASSOCIATED METHODS OF USE” (ARVINAS OPERATIONS, INC., priority 2018, published 2020)", "key": {"[1]": {"tested_on": "set of 468 kinases", "test": "KinomeScan kinase engagement assay (DiscoverX)", "format": "binding", "conditions": "1000 nM, 403 non-mutant kinases", "protocol": "The Kinase engagement assay was performed by DiscoverX assessing binding abilities towards a set of 468 kinases.\nExamination of Target Protein Selectivity. To assess the target selectivity of exemplary compound 102 over a large panel of different kinases, a DiscoverX KINOMEScan was performed. KINOMEScan measures compound binding to individual kinases via the compounds ability to compete/displace the kinases from an immobilized support that non-selectively binds kinase active sites. […] It appears that the slight loss in inhibitory potency due to linker and VHL ligand attachment results in greater selectivity."}, "[2]": {"tested_on": "S6RP", "test": "Western blot of S6RP total levels in MDA-MB-231 cells", "format": "cell-based, human", "conditions": "10% FBS, varying concentrations", "protocol": "If not indicated otherwise, cells were seeded and grown to 80% confluency and were treated with compound or control for 24 hours. Subsequently, the growth media was removed and the cells lysed by the addition of lysis buffer (25 mM Tris, pH 7.4; 1% NP-40, 0.25% deoxycholate, 1 mM sodium vanadate, 10 mM sodium fluoride, 10 mM sodium pyrophosphate, 20 mM β-glycerophosphate and 1× complete EDTA-free protease inhibitor cocktail (Roche)). After 20 minutes the mixture was spun down at 16,000×g for 10 minutes at 4° C. to pellet insoluble materials. Protein concentration of supernatants were determined via BCA assay (Thermo Fisher) before addition of NuPAGE sample buffer containing 5% β-Me and boiling at 95° C. for 10 minutes. Equal amounts of protein were subjected to SDS-PAGE and subsequent electrophoretic transfer onto nitrocellulose membrane. Rabbit antibodies were purchased from Cell Signaling: Fak (3285), p-Fak (3283), p-Paxillin (2541), p-Akt (S473)(4060), GAPDH (2118), Androgen Receptor (5153), p-Src(Y527)(2105), p-S6RP (2215). Mouse antibodies were purchased from Cell Signaling: tubulin (3873), S6RP (2317). […] Immunoblots were developed using enhanced chemiluminescence and visualized using a Bio-Rad Chemi-Doc MP Imaging System and quantitated with Image Lab v.5.2.1 software (Bio-Rad Laboratories). […]"}, "[3]": {"tested_on": "MDA-MB-231 cells", "test": "Wound healing assay", "format": "cell-based, human", "conditions": "24 hours", "protocol": "MDA-MB-231 cells were maintained in complete growth medium (RPMI-1640) at 37° C. supplied with 5% CO2. Cells (1×10^6) were split in to a 12-well plate. After 24 hours an even wound was created across each well using a sterile 10 μL pipette tip and the cells were washed with warm phosphate-buffered solution (PBS) twice to remove any floating or dead cells. This time point was considered as 0 hours and cells were incubated in fresh medium containing exemplary compound or control as indicated, for 24 hours. Images of wounded area were captured at 0 hour and after 24 hours using a camera attached to a light microscope. Images were analyzed by ImageJ software and wounded area was quantified. The area of the remaining wound at 24 hours was subtracted from the area of the wound at 0 hour. Percent wound healing (migration) was calculated and data presented as a bar graph using Prism 7.0 (GraphPad). Differences between groups were analyzed by Welch's t-test and considered significant when p<0.05.\nSince Fak is a key regulator of cell motility, exemplary compound 102 was evaluated for its effect on cell migration and invasion. […] Effects on cell migration were analyzed in a wound healing assay using the aggressive and invasive human TNBC cell line MDA-MB-231. […] Wound closure was quantified after 24 hours (FIGS. 13A and 13B)."}, "[4]": {"tested_on": "p-S6RP(S240/S244)", "test": "Western blot validation of RPPA results in MDA-MB-231 cells", "format": "cell-based, human", "conditions": "10% FBS, varying concentrations", "protocol": "(§1) If not indicated otherwise, cells were seeded and grown to 80% confluency and were treated with compound or control for 24 hours. Subsequently, the growth media was removed and the cells lysed by the addition of lysis buffer (25 mM Tris, pH 7.4; 1% NP-40, 0.25% deoxycholate, 1 mM sodium vanadate, 10 mM sodium fluoride, 10 mM sodium pyrophosphate, 20 mM β-glycerophosphate and 1× complete EDTA-free protease inhibitor cocktail (Roche)). After 20 minutes the mixture was spun down at 16,000×g for 10 minutes at 4° C. to pellet insoluble materials. Protein concentration of supernatants were determined via BCA assay (Thermo Fisher) before addition of NuPAGE sample buffer containing 5% β-Me and boiling at 95° C. for 10 minutes. Equal amounts of protein were subjected to SDS-PAGE and subsequent electrophoretic transfer onto nitrocellulose membrane. Rabbit antibodies were purchased from Cell Signaling: Fak (3285), p-Fak (3283), p-Paxillin (2541), p-Akt (S473)(4060), GAPDH (2118), Androgen Receptor (5153), p-Src(Y527)(2105), p-S6RP (2215). Mouse antibodies were purchased from Cell Signaling: tubulin (3873), S6RP (2317). Secondary antibody ∝-rabbit (31460) or ∝-mouse (31444) was coupled to horseradish peroxidase and purchased from Thermo Fisher. Immunoblots were developed using enhanced chemiluminescence and visualized using a Bio-Rad Chemi-Doc MP Imaging System and quantitated with Image Lab v.5.2.1 software (Bio-Rad Laboratories). Data analysis and statistics was performed using Prism 7.0 (GraphPad).\n(§2) It has been previously shown that extranuclear AR is involved in cell migration and forms a multiprotein complex comprised of filamin A/β-1 integrin/Fak/AR in NIH3T3 fibroblasts that facilitates Fak activation. […] Phosphorylation of S6RP occurs via the Src-Fak-PI3K pathway and p-S6RP is required for the initiation of translation in response to cell growth and proliferation."}, "[5]": {"tested_on": "androgen receptor (AR)", "test": "Western blot validation of RPPA results in MDA-MB-231 cells", "format": "cell-based, human", "conditions": "10% FBS, varying concentrations", "protocol": "as §1, §2"}, "[6]": {"tested_on": "p-Src(Y527)", "test": "Western blot validation of RPPA results in MDA-MB-231 cells", "format": "cell-based, human", "conditions": "10% FBS, varying concentrations", "protocol": "as §1, §2"}, "[7]": {"tested_on": "p-Akt(S473)", "test": "Western blot validation of RPPA results in MDA-MB-231 cells", "format": "cell-based, human", "conditions": "10% FBS, varying concentrations", "protocol": "as §1, §2"}, "[8]": {"target": "Fak (Homo sapiens, UniProt Q05397)", "sequence (Q05397 whole entry)": "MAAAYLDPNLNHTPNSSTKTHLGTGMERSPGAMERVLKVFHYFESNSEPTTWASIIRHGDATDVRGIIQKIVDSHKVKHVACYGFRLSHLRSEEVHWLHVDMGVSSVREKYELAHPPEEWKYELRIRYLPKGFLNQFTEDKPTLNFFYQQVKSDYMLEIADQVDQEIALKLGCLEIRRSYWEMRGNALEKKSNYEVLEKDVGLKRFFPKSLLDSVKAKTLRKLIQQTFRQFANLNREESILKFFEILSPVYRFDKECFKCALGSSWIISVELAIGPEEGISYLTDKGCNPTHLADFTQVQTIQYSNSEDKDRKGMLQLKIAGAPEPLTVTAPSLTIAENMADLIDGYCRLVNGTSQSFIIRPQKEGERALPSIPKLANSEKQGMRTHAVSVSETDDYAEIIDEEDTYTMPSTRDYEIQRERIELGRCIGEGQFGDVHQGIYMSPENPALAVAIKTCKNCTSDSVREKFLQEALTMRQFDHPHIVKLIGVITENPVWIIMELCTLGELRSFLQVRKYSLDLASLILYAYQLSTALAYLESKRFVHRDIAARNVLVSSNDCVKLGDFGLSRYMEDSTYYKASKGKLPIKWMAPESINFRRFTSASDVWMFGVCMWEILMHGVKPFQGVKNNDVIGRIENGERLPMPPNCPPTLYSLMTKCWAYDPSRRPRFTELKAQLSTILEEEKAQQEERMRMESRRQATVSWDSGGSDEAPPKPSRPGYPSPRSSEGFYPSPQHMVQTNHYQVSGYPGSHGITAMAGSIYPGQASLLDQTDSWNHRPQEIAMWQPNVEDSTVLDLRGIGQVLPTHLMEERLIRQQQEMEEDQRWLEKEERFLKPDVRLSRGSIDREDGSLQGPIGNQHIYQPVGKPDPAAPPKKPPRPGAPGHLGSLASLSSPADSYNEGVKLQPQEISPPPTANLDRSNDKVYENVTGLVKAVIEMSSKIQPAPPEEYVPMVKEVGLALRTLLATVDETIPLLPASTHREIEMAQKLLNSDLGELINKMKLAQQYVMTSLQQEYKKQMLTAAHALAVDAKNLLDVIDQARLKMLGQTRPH", "test": "Kinase activity assay (Reaction Biology Corp.)", "format": "biochemical", "parameters": "purchased Reaction Biology Corp. (contract assay service)", "conditions": "10 μM ATP, n = 2", "protocol": "Reactions were carried out at 10 μM ATP. IC50 values were calculated using Prism 7.0 (GraphPad)."}}, "data": [{"smiles": "Cc1ncsc1-c1ccc(CNC(=O)[C@@H]2C[C@@H](O)CN2C(=O)[C@@H](NC(=O)CCOCCOc2ccc(Nc3ncc(C(F)(F)F)c(NCc4cccc(N(C)S(C)(=O)=O)c4)n3)cc2)C(C)(C)C)cc1", "note": "[Compound 102, (2S,4R)-1-((S)-3,3-dimethyl-2-(3-(2-(4-((4-((3-(N-methylmethylsulfonamido)benzyl)amino)-5-(trifluoromethyl)pyrimidin-2-yl)amino)phenoxy)ethoxy)propanamido)butanoyl)-4-hydroxy-N-(4-(4-methylthiazol-5-yl)benzyl)pyrrolidine-2-carboxamide]", "values": [{"measurement": "Number of Hits, S(10)", "setting": "[1]", "result": 7}, {"measurement": "Selectivity Score, S(1)", "setting": "[1]", "result": 0.002}, {"measurement": "Selectivity Score, S(10)", "setting": "[1]", "result": 0.017}, {"measurement": "Selectivity Score, S(35)", "setting": "[1]", "result": 0.05}, {"measurement": "Number of Hits, S(35)", "setting": "[1]; less than 35% of control remaining", "result": 20}, {"measurement": "total S6RP levels (in words)", "setting": "[2]", "result": "unchanged"}, {"measurement": "reduction of wound healing", "setting": "[3]; 50 nM", "result": 53, "unit": "%"}, {"measurement": "impairment of wound closure", "setting": "[3]; 250 nM", "result": 70, "unit": "%"}, {"measurement": "phosphorylation of S6RP (in words)", "setting": "[4]", "result": "reduced phosphorylation"}, {"measurement": "AR levels (in words)", "setting": "[5]", "result": "reduction of AR levels"}, {"measurement": "p-Src(Y527) levels (in words)", "setting": "[6]", "result": "reduced levels"}, {"measurement": "p-Akt(S473) levels (in words)", "setting": "[7]", "result": "reduced levels of p-Akt(S473)"}, {"measurement": "IC50", "setting": "[8]", "result": 6.5, "unit": "nM"}]}]}
